What was measured:
[1] = test system: PRAS40 (T246) and pS6 (S235/236) in CHA 9-3 cells; experiment: Western blot of PI3K downstream targets PRAS40 (T246) and pS6 (S235/236); assay type: cell-based, mouse; details: 10 μM
Method: We also determined the effect of ETP-47037 and ETP-47228 in the inhibition of other PI3K downstream targets, PRAS40 (T246), and pS6 (S235/236)[64], [65] (Supplementary Fig. 1).
For detection of AKT, PRAS40 (T246) and pS6 in CHA9.3 cells, untreated control (DMSO) or treated with the indicated inhibitors, were lysed in RIPA buffer supplemented with 100 mM pefablock (Roche Diagnostics) and protease inhibitor cocktail (Roche Molecular Biochemicals). Proteins were resolved on 10% SDS-PAGE, and transferred to nitrocellulose membrane (Amersham^TM Protan^TM 0.2 µm nNC). Membranes were incubated with antibodies against phospho-AKT (Ser473), AKT, phospo-S6 (Ser 235/236), and S6Ribosomal from Cell Signaling, phospo-PRAS40 (Thr246) from BIOSURCE and anti α-tubulin form Sigma, overnight at 4 °C. After washing, blots were incubated with secondary antibody: Alexa Fluor 680 goat anti-rabbit IgG (Invitrogen) or anti-mouse IgG DyLight 800 conjugated (Thermo Scientific), and visualized using an Odyssey infrared imaging system (Li-Cor Biosciences).
Supplementary Figure 1. Modulation of PI3K/AKT downstream targets by ETP-47037 and ETP-47228. Representative Western blot images of PRAS40 phosphorylation at T246 and of P6 at S235/236 in CHIA 9-3 lung cancer cell line treated for 24 hours with 10 µM of ETP-47037 or with 10 µM of ETP-47228 at different time points of the treatment. […]

[2] = test system: CHA 9-3 cells; experiment: Multitelomeric signals (MTS) by Q-FISH on metaphase spreads; assay type: cell-based, mouse; details: 10 μM, 24 h
Description: Trf1 abrogation is known to lead to a persistent DDR at telomeres, and to induction of telomere-induced chromosomal aberrations[28]–[30]. Trf1 genetic deletion induces the so-called multitelomeric signals (MTS), a chromosomal aberration related to increased telomere fragility during DNA replication, [29]. […] To this end, we treated CHA 9-3 cells with either DMSO, the AKT inhibitor MK-2206 (AKTi) and the PI3K inhibitors ETP-47037 or ETP-47228. For detection of MTS, we performed quantitative fluorescence in situ hybridization (Q-FISH) analysis on metaphase spreads using a telomeric probe to visualize telomeres (“Methods” section). MTS are visualized by presenting a multi-dot pattern at chromosome ends in contrast to normal telomeres that show a single dot at each chromosome end.
Lung cancer-derived cell line (CHA-9-3) and immortalized P110α ^lox/lox MEFS were treated either with 10 µM of ETP-47037, ETP-47228, or AKTi (MK-2206) for 24 h. Q-FISH in metaphase spreads was performed as described above, but increasing the concentration of formamide in both the incubation and the washes to 70%.

[3] = target: T1, B-RAF-V600E (Homo sapiens, UniProt P15056, V600E); experiment: ProQinase kinase panel; assay type: biochemical; details: read-out: Inh (%) at 1µM, B-RAF-V600E
T1 construct: purchased ProQinase
T1 sequence (P15056 whole entry V600E): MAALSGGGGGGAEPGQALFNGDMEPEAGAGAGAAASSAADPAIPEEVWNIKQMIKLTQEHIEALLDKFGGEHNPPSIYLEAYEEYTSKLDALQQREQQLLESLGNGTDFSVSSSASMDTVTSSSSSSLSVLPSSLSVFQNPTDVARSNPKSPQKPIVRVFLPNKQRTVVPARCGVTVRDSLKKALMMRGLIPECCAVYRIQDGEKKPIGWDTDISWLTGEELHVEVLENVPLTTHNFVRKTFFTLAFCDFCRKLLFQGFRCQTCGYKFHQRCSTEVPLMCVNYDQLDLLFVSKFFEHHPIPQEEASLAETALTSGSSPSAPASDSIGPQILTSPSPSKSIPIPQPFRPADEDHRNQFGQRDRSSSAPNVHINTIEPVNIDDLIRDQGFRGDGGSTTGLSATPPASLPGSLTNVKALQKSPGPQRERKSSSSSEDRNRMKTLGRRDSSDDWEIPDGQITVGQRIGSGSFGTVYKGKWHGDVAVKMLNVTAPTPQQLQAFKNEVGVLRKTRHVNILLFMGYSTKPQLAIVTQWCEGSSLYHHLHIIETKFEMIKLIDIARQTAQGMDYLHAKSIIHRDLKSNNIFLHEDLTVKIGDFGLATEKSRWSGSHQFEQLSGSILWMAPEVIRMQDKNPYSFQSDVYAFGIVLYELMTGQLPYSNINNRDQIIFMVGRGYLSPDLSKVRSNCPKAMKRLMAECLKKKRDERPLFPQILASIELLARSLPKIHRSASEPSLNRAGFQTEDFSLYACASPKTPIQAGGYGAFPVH
Method: (§1) Supplementary Table 1: Kinase selectivity profile of ETP-47037 and ETP-47228 at 1 µM. Selectivity against protein kinases was determined from evaluation of compounds at 1µM in ProQinase’s 24 selected panel that represents the ACG, STE, TKL, TK, CMGC CAMK and CK1 kinase families.

[4] = target: T2, MET (Homo sapiens, UniProt P08581); experiment: ProQinase kinase panel; assay type: biochemical; details: read-out: Inh (%) at 1µM, MET
T2 construct: purchased ProQinase
Method: as §1

[5] = target: T3, PAK1 (Homo sapiens, UniProt Q13153); experiment: ProQinase kinase panel; assay type: biochemical; details: read-out: Inh (%) at 1µM, PAK1
T3 construct: purchased ProQinase
T3 sequence (Q13153 whole entry): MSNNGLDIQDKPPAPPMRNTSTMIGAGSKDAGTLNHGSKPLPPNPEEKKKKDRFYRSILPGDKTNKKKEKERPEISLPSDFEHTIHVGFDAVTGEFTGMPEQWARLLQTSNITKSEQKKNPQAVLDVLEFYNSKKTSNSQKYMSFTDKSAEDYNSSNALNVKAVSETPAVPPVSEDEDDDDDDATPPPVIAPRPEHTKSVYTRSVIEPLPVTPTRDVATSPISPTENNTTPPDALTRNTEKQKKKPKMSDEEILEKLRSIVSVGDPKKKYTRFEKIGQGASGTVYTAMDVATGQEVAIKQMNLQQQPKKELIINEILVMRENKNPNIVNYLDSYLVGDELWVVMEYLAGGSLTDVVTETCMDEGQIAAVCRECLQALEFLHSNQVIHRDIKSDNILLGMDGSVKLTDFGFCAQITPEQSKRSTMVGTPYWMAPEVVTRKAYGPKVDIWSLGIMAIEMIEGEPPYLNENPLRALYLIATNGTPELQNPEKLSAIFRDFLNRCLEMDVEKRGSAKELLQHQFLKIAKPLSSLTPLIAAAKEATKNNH
Method: as §1

[6] = target: T4, SGK1 (Homo sapiens, UniProt O00141); experiment: ProQinase kinase panel; assay type: biochemical; details: read-out: Inh (%) at 1µM, SGK1
T4 construct: purchased ProQinase
Method: as §1

[7] = target: T5, RPS6KA1 (Homo sapiens, UniProt Q15418); experiment: ProQinase kinase panel; assay type: biochemical; details: read-out: Inh (%) at 1µM, RPS6KA1
T5 construct: purchased ProQinase
T5 sequence (Q15418 whole entry): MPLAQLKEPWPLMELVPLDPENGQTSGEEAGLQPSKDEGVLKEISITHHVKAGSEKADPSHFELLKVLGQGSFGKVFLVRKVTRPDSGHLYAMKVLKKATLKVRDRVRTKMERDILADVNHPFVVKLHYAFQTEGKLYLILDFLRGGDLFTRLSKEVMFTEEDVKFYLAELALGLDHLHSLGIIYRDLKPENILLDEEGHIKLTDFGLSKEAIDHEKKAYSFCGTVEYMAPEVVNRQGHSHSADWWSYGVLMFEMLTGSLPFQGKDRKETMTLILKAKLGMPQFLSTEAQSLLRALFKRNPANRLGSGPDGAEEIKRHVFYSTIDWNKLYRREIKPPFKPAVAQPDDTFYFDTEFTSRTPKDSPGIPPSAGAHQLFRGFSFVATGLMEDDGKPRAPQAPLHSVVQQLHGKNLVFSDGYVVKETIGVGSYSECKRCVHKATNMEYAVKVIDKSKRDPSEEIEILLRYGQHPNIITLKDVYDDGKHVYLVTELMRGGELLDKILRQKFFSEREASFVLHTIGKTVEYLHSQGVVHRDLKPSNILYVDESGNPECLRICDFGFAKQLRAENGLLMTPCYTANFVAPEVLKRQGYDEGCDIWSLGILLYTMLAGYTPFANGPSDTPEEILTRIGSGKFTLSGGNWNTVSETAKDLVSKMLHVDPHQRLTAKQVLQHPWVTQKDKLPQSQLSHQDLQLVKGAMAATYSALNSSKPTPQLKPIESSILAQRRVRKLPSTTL
Method: as §1

[8] = target: T6, CHK1 (Homo sapiens, UniProt O14757); experiment: ProQinase kinase panel; assay type: biochemical; details: read-out: Inh (%) at 1µM, CHK1
T6 construct: purchased ProQinase
Method: as §1

[9] = target: T7, MEK1 (Homo sapiens, UniProt Q02750); experiment: ProQinase kinase panel; assay type: biochemical; details: read-out: Inh (%) at 1µM, MEK1
T7 construct: purchased ProQinase
T7 sequence (Q02750 whole entry): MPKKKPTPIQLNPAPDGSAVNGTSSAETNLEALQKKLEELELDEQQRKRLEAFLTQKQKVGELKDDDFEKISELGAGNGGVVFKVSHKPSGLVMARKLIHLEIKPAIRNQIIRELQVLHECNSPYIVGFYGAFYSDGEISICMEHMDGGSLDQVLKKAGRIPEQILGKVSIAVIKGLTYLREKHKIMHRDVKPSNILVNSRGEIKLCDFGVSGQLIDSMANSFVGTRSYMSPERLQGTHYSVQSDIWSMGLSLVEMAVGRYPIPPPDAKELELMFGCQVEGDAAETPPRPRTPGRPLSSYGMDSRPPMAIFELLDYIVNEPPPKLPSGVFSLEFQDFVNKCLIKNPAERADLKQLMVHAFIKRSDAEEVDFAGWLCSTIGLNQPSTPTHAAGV
Method: as §1

[10] = target: T8, KIT (Homo sapiens, UniProt P10721); experiment: ProQinase kinase panel; assay type: biochemical; details: read-out: Inh (%) at 1µM, KIT
T8 construct: purchased ProQinase
T8 sequence (P10721 26-976): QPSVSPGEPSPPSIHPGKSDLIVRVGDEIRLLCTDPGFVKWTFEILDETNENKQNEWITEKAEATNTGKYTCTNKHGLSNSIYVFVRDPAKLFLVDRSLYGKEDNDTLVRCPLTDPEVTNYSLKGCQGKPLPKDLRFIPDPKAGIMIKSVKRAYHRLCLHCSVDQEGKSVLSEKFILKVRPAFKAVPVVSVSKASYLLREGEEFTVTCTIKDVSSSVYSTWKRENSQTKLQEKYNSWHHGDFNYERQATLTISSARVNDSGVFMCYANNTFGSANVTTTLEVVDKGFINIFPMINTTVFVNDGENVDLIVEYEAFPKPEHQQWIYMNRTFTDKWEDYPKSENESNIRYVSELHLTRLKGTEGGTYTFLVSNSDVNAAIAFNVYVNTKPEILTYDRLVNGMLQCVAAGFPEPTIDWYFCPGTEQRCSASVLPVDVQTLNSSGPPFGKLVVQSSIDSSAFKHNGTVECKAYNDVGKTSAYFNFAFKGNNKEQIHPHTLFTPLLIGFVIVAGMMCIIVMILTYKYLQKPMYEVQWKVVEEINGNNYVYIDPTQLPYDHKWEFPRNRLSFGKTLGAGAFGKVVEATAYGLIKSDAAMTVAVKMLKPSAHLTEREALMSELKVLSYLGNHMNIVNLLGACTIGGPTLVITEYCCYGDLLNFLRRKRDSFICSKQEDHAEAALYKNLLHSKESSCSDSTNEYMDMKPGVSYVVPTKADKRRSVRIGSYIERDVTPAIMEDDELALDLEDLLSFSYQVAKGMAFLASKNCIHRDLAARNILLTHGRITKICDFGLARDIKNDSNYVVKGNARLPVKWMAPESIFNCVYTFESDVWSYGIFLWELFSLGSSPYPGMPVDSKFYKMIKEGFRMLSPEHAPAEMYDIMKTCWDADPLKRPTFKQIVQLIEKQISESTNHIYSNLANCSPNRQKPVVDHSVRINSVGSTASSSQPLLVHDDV
Method: as §1

[11] = target: T9, PDGFR-alpha (Homo sapiens, UniProt P16234); experiment: ProQinase kinase panel; assay type: biochemical; details: read-out: Inh (%) at 1µM, PDGFR-alpha
T9 construct: purchased ProQinase
Method: as §1

[12] = target: T10, CK1-alpha1 (Homo sapiens, UniProt P48729); experiment: ProQinase kinase panel; assay type: biochemical; details: read-out: Inh (%) at 1µM, CK1-alpha1
T10 construct: purchased ProQinase
T10 sequence (P48729 whole entry): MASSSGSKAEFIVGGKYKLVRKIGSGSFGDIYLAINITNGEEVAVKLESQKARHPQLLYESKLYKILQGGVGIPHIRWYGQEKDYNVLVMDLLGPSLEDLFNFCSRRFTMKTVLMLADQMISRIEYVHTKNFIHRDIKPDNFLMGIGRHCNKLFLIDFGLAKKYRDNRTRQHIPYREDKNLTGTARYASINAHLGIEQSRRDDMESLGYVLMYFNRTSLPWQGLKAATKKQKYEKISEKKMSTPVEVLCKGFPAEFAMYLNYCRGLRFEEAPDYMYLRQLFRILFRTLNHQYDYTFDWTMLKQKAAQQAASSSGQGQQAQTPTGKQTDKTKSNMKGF
Method: as §1

[13] = target: T11, CHK2 (Homo sapiens, UniProt O96017); experiment: ProQinase kinase panel; assay type: biochemical; details: read-out: Inh (%) at 1µM, CHK2
T11 construct: purchased ProQinase
Method: as §1

[14] = target: T12, SRC (Homo sapiens, UniProt P12931); experiment: ProQinase kinase panel; assay type: biochemical; details: read-out: Inh (%) at 1µM, SRC
T12 construct: purchased ProQinase
T12 sequence (P12931 whole entry): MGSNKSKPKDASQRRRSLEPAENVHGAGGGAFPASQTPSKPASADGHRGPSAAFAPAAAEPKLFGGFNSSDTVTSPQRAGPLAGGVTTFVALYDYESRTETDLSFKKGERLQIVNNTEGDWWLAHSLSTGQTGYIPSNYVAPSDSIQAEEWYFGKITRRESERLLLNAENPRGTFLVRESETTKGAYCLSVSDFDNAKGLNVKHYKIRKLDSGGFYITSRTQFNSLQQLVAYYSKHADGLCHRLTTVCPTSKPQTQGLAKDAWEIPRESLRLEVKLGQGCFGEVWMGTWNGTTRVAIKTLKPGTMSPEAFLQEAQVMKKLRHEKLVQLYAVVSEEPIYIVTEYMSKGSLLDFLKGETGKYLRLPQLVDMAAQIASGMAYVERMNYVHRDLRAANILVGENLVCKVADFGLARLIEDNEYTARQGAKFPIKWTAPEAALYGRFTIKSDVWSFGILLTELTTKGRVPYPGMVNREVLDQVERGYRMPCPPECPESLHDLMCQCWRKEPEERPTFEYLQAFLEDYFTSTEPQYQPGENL
Method: as §1

[15] = target: T13, INS-R (Homo sapiens, UniProt P06213); experiment: ProQinase kinase panel; assay type: biochemical; details: read-out: Inh (%) at 1µM, INS-R
T13 construct: purchased ProQinase
T13 sequence (P06213 980-1382 limits assumed): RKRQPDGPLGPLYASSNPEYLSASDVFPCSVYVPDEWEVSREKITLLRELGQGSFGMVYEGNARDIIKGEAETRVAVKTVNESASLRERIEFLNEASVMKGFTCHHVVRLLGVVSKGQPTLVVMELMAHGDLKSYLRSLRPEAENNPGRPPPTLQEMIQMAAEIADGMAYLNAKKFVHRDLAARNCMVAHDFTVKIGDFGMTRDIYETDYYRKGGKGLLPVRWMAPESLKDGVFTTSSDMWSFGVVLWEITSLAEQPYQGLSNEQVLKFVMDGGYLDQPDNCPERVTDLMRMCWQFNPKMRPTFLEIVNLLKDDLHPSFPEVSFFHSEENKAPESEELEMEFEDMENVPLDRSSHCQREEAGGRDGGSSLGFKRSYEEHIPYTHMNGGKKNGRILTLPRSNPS
Method: as §1

SMILES	Inhibition of PI3K downstream targets PRAS40 (T246) and pS6 (S235/236) (in words) [1]	Frequency of MTS events per metaphase compared to DMSO [2]	inhibition at 1 µM [3]	inhibition at 1 µM [4]	inhibition at 1 µM [5]	inhibition at 1 µM [6]	inhibition at 1 µM [7]	inhibition at 1 µM [8]	inhibition at 1 µM [9]	inhibition at 1 µM [10]	inhibition at 1 µM [11]	inhibition at 1 µM [12]	inhibition at 1 µM [13]	inhibition at 1 µM [14]	inhibition at 1 µM [15]
CS(=O)(=O)N1CCN(Cc2cc3c(N4CCOCC4)nc(-c4cnc(N)nc4)cn3n2)CC1 [ETP-47037]	bona fide inhibitors of the PI3K/AKT axis	significantly increased	6.5%	3%	-3.5%	0.5%	-4.5%	15.5%	-15%	9%	4%	-6%	0.5%	26%	5%
Cc1cnc2c(N3CCOCC3)nc(-c3ccc(NC(=O)Nc4ccc(C(=O)N5CCN(C)CC5)cc4)cc3)cn12 [ETP-47228]	bona fide inhibitors of the PI3K/AKT axis	significantly increased	11.5%	3%	1%	0.5%	-1.5%	-11.5%	-3%	6.5%	1%	2%	3%	5%	-3%

— publication PMC5668434, “Modulation of telomere protection by the PI3K/AKT pathway” (Nature Communications, 2017)
